This is an account of results in patent publication US6429317B1, “Indane derivatives for antipsychotic compositions” (priority 1996, dated 2002).

In one assay the target is T1, human m4 receptors (Homo sapiens, UniProt P08173).
T1 construct: expressed in transfected cells; host or cells: CHO K1
T1 sequence (P08173 whole entry): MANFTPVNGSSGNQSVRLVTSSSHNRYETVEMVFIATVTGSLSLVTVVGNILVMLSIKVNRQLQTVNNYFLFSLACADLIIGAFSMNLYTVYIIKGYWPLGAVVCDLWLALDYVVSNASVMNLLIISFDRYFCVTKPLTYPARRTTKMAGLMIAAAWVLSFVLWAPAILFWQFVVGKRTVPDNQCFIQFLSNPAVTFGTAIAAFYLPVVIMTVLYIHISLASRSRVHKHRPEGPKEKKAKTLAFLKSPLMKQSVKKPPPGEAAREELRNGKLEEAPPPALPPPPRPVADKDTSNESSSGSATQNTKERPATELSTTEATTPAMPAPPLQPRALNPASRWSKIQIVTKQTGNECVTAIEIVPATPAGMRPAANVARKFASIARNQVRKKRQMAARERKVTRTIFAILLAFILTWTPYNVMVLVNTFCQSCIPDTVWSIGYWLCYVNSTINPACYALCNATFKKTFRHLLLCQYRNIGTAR
Nature of the assay: Cyclic AMP accumulation in pertussis toxin-treated CHO m4 cells. Type of assay: cell-based. Particulars: stimulation of cyclic AMP production in CHO-m4 cells, forskolin present. Here is the method:
Cyclic AMP Accumulation in Pertussis Toxin-Treated CHO m4 Cells.
CHO K1 cells transfected with human m4 receptors were grown to near confluency in T-150 flasks using Dulbecco's Modified Eagle Medium (DMEM) containing 10% fetal bovine serum. Cells were detached with 0.05% trypsin, […], and were suspended in medium containing 100 ng/ml pertussis toxin. Cells were plated at 30,000 cells per well into 96 well plates. Eighteen to twenty hours later the medium was removed and the cells were washed with serum-free medium. Attached cells were incubated at 37° C. for one hour after addition of […] of serum free DMEM containing 1 mM 3-isobutyl-1-methylxanthine and 1 mM forskolin plus or minus drugs being tested. Incubations were terminated with […] per well of serum free DMEM containing 0.3% triton-X-100. After stopping incubations the plates were allowed to sit for 20 minutes to extract cAMP and samples were then diluted 2.5-fold and were assayed using the scintillation proximity assay of Amersham (Arlington Heights, Ill).
Representative results from the M4 assay are as follows:
Stimulation of cyclic AMP production in CHO-m4cells.
In the case of `CCCCc1ccc(C(=O)NC2c3cc(N=CN4CCCC4)ccc3CC2O)cc1` (stereo not drawn) [Compound 45], the “% Maximum Stimulation Compared to Oxotremorine-M” value is below 20%. Still for that read-out and setting: next, `O=C(NC1c2cc(N=CN3CCCC3)ccc2CC1O)c1c(Cl)cccc1Cl` (stereo not drawn) [Compound 46]: 154%; `O=C(NC1c2cc(N=CN3CCCC3)ccc2CC1O)c1c(Cl)cc(Cl)cc1Cl` (stereo not drawn) [Compound 47]: below 20%. Consider `CN(C)C=Nc1ccc2c(c1)C(NC(=O)c1ccccc1)C(O)C2` (stereo not drawn) [Compound 57], for which the “% Maximum Stimulation Compared to Oxotremorine-M” value is listed as 5%.

Regarding `CN(C)C=Nc1ccc2c(c1)C(NC(=O)c1cc(Cl)cc(Cl)c1)C(O)C2` (stereo not drawn) [Compound 58], the “% Maximum Stimulation Compared to Oxotremorine-M” value worked out at 74%.

As for `CCCCOc1ccc(C(=O)NC2c3cc(N=CN(C)C)ccc3CC2O)cc1` (stereo not drawn) [Compound 59], the “% Maximum Stimulation Compared to Oxotremorine-M” value came out at 22%.

Regarding `CN(C)C=Nc1ccc2c(c1)C(NC(=O)c1cc(C(F)(F)F)cc(C(F)(F)F)c1)C(O)C2` (stereo not drawn) [Compound 60], the “% Maximum Stimulation Compared to Oxotremorine-M” value came to 100%. As to `CN(C)C=Nc1ccc2c(c1)C(NC(=O)c1cccc(C#N)c1)C(O)C2` (stereo not drawn) [Compound 61], the “% Maximum Stimulation Compared to Oxotremorine-M” value is recorded as 39%. On to `CN(C)C=Nc1ccc2c(c1)C(NC(=O)C1CCCC1)C(O)C2` (stereo not drawn) [Compound 62], for which the “% Maximum Stimulation Compared to Oxotremorine-M” value is 27%. As for `CN(C)C=Nc1ccc2c(c1)C(NC(=O)c1ccc3ccccc3c1)C(O)C2` (stereo not drawn) [Compound 63], the “% Maximum Stimulation Compared to Oxotremorine-M” value is given as 13%. As to `CN(C)C=Nc1ccc2c(c1)C(NC(=O)c1cc(F)cc(C(F)(F)F)c1)C(O)C2` (stereo not drawn) [Compound 64], the “% Maximum Stimulation Compared to Oxotremorine-M” value was 52%. Take `CN(C)C=Nc1ccc2c(c1)C(NC(=O)c1cc(F)c(F)c(F)c1)C(O)C2` (stereo not drawn) [Compound 65]: the “% Maximum Stimulation Compared to Oxotremorine-M” value came to 30%. Consider `CN(C)C=Nc1ccc2c(c1)C(NC(=O)C(F)(F)F)C(O)C2` (stereo not drawn) [Compound 66], for which the “% Maximum Stimulation Compared to Oxotremorine-M” value is recorded as 0%.

`CCc1ccc(C(=O)NC2c3cc(N=CN(C)C)ccc3CC2O)cc1` (stereo not drawn) [Compound 67]: the “% Maximum Stimulation Compared to Oxotremorine-M” value came to 7%. `CN(C)C=Nc1ccc2c(c1)C(NC(=O)c1sccc1Cl)C(O)C2` (stereo not drawn) [Compound 68]: the “% Maximum Stimulation Compared to Oxotremorine-M” value amounted to 0%.

`CN(C)C=Nc1ccc2c(c1)C(NC(=O)c1cc3ccccc3s1)C(O)C2` (stereo not drawn) [Compound 69]: the “% Maximum Stimulation Compared to Oxotremorine-M” value is listed as 14%. Take `CCCCc1ccc(C(=O)NC2c3cc(N=CN(C)C)ccc3CC2O)cc1` (stereo not drawn) [Compound 70]: the “% Maximum Stimulation Compared to Oxotremorine-M” value amounted to 18%. In the case of `CN(C)C=Nc1ccc2c(c1)C(NC(=O)c1cccc3ccccc13)C(O)C2` (stereo not drawn) [Compound 71], the “% Maximum Stimulation Compared to Oxotremorine-M” value worked out at 95%. Still for that read-out and setting: next, `CN(C)C=Nc1ccc2c(c1)C(NS(=O)(=O)c1ccc(Cl)c(Cl)c1)C(O)C2` (stereo not drawn) [Compound 72]: 4%; `CN(C)C=Nc1ccc2c(c1)C(NC(=O)c1cccnc1Cl)C(O)C2` (stereo not drawn) [Compound 73]: 11%; `CN(C)C=Nc1ccc2c(c1)C(NC(=O)c1ccc(Cl)nc1)C(O)C2` (stereo not drawn) [Compound 74]: 8%. With `CN(C)C=Nc1ccc2c(c1)C(NC(=O)c1ccc(C(F)(F)F)cc1)C(O)C2` (stereo not drawn) [Compound 75], the “% Maximum Stimulation Compared to Oxotremorine-M” value is reported as 6%.

Consider `CC(=Nc1ccc2c(c1)C(NC(=O)c1ccc(Cl)c(Cl)c1)C(O)C2)N(C)C` (stereo not drawn) [Compound 76], for which the “% Maximum Stimulation Compared to Oxotremorine-M” value amounted to 130%.

For the molecule `O=C(NC1c2cc(N=CN3CCCCC3)ccc2CC1O)c1ccc(Cl)c(Cl)c1` (stereo not drawn) [Compound 77], the “% Maximum Stimulation Compared to Oxotremorine-M” value is listed as 214%. As to `O=C(NC1c2cc(N=CN3CCCCC3)ccc2CC1O)c1cccc(Cl)c1Cl` (stereo not drawn) [Compound 88], the “% Maximum Stimulation Compared to Oxotremorine-M” value amounted to 52%. With `O=C(NC1c2cc(N=CN3CCCCC3)ccc2CC1O)c1cc(Cl)cc(Cl)c1` (stereo not drawn) [Compound 97], the “% Maximum Stimulation Compared to Oxotremorine-M” value turned out to be 36%.

As to `O=C(NC1c2cc(N=CN3CCCCC3)ccc2CC1O)c1cc(F)cc(F)c1` (stereo not drawn) [Compound 98], the “% Maximum Stimulation Compared to Oxotremorine-M” value was found to be 73%.

In a further assay the target is muscarinic receptor.
Assay: not given
The note with it: first of three sites (high affinity); read-out: affinity of site labeled by 3H-Oxo; cited from earlier work.
On to `C[N+](C)(C)CC#CCN1CCCC1=O` [^3H-Oxo, ^3H-Oxotremorine-M], for which the Kd is 0.0018 µM.

The same assay, now with this note: second of three sites (medium affinity); read-out: affinity of site labeled by 3H-Oxo; cited from earlier work.
Consider `C[N+](C)(C)CC#CCN1CCCC1=O` [^3H-Oxo, ^3H-Oxotremorine-M], for which the Kd was 0.02 µM.

The same assay, now with this note: third of three sites (low affinity); read-out: affinity of site labeled by 3H-Oxo; cited from earlier work.
In the case of `C[N+](C)(C)CC#CCN1CCCC1=O` [^3H-Oxo, ^3H-Oxotremorine-M], the Kd is 3 µM.
